Drawing on patent publication US5405848A, “Substituted thiazolylaminotetrahydropyridopyrimidines derivatives useful as platelet aggregation inhibitors” (Ortho Pharmaceutical Corporation, priority 1993, dated 1995), this text covers inhibition and IC50 for ten compounds.

Assay [1] deals with platelets. The assay is described as follows: Platelet Aggregation Inhibition Activity (gel-filtered platelets, thrombin or ADP agonist, light transmission). The format is cell-based. Particulars: 37° C.; for IC50: unit inferred. The procedure:
The percentage of platelet aggregation is calculated as an increase in light transmission of drug treated platelet concentrate vs control treated platelet concentrate. Blood is obtained from drug free, normal donors and placed into tubes containing 0.13 M sodium citrate (two sources are routinely used: platelet concentrate obtained from Biological Specialty Corp., Lansdale, Pa. or whole blood obtained from donors). Platelet rich plasma (PRP) is collected by centrifugation of the concentrate or whole blood at 130 ×g for 15 min at 25° C. The PRP (5 mL) is gel filtered through Sepharose 2B (bed volume 50 mL), and the platelet count is adjusted to 2×10^7 platelets per sample. The following constituents are added to a siliconized cuvette: 250 μL of the concentrated platelet flitrate, 100 μL of Tyrode's buffer (0.14 M NaCl, 0.0027 M KCl, 0.012 M NaHCO3, 0.76 mM Na2HPO4, 0.0055 M glucose and 2 mg/mL BSA pH 7.4), 50 μL of 2 mM calcium and test drug […]. Aggregation is monitored in a dual channel Chrono-log Aggregometer for three minutes following the addition of agonist (thrombin 50 μL of 1 unit/mL, or ADP 50 μL of 100 μM). The final assay volume is 500 μL. The reaction takes place at 37° C. The peak aggregation response is calculated as the increase in light transmission units over a three minute period. The difference of the increase in light transmission between control and drug treated platelets is then expressed as a percent of the nondrug treated controls.

Assay [2] has as its target T1, fibrinogen receptor of blood platelets (activated platelets) (Homo sapiens, UniProt P05106+P08514).
T1 construct: from tissue
In words: Fibrinogen Binding (125I-fibrinogen binding to thrombin-activated platelets). Particulars: 125I-fibrinogen 0.15 μM; for IC50: unit inferred. How it is done: The compounds of the invention as identified above are evaluated for platelet aggregation inhibition activity as indicated by the percentage of non-aggregated platelets which are available for binding in accordance with the following procedure.
^125 I-Fibrinogen binding to activated platelets is a modification of the procedure described by Bennett et al., 1988. Briefly, 40 mL of PRP are centrifuged at 120 ×g to remove contaminating red cells. Aspirin (50 μM) is added and the PRP is incubated at 37° C. for 20 minutes. The pH of the PRP is adjusted to 6.5 with 3.8% sodium citrate and 0.9 μM of PGE1 is added. Platelets are concentrated by a 300 ×g centrifugation (10 min) and the pellet is resuspended in 4 mL. of Tyrode's buffer. The platelet suspension (4 mL) is gel-filtered through a Sepharose-2B column (50 mL bed volume). The platelet count is adjusted to 1×10^8 platelets per 200 mL. The binding reaction is performed in polystyrene tubes (final volume 500 mL). Reagents are added in the following order: 80 mL of Tyrode's buffer, 50 mL of CaCl2 (final concentration (f.c.) […]) and 50 mL of thrombin (f.c. 0.1 unit/mL). The platelet suspension is then added and the mixture is allowed to incubate at room temperature for 2 minutes. Hirudin (50 mL, f.c. 0.5 unit/mL) is immediately added to prevent the catalytic activity of thrombin. Various concentrations of the compound to be tested […] with the competing radioligand ^125 I-fibrinogen (f.c. of 0.15 μM) are added. The mixture is incubated for 10 minutes at room temperature. To terminate the binding reaction the platelets are sedimented (10,000 ×g for 3 minutes) through silicone oil (3:1 hi-phenol 550/methyl silicone 200, W. F. Nye, Inc., New Bedford, Mass.), in an Eppendorf centrifuge.
The tips of the centrifuge tubes containing the pelleted platelets are cut off and counted for ^125 I-fibrinogen associated with the stimulated platelets. The amount of platelet radioactivity measured in the presence of nonlabeled fibrinogen (4 mg/mL) is considered the nonspecific binding.
Data are expressed as a percent at concentrations of 30 μM of specifically bound ^125 I-fibrinogen to the platelets in Table 5 below. Positive percentages of fibrinogen binding indicates higher activity for inhibiting platelet aggregation since only non-aggregated or free platelets are available for fibrinogen binding. Alternatively, a concentration is provided in lieu of a percentage to indicate the IC50 of concentration of compound which provides 50% fibrinogen binding.

T1 sequence (P08514 32-887 limits assumed): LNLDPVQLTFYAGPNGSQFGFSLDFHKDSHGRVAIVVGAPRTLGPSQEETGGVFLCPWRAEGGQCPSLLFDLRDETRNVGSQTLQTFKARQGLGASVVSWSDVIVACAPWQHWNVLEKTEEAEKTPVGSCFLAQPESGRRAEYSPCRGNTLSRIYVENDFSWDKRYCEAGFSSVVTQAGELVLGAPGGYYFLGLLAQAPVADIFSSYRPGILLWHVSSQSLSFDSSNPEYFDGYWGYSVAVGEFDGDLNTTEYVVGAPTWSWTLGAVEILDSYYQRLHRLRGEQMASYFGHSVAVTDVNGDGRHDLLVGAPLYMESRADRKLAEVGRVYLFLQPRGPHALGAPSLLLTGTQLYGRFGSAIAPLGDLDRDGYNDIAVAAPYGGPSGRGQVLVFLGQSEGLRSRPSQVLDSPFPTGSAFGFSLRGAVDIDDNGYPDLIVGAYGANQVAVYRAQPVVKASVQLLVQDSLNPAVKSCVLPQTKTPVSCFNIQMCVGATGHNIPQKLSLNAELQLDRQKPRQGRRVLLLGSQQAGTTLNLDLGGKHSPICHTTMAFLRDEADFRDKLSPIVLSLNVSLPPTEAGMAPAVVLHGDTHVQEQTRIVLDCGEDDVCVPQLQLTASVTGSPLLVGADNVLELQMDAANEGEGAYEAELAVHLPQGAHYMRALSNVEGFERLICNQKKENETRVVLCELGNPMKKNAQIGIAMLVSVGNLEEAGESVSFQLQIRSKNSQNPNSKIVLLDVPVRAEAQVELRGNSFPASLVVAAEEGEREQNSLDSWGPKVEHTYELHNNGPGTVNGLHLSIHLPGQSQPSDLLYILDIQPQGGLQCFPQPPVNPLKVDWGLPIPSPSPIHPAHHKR
T1 sequence (P08514 891-1039 partner limits assumed): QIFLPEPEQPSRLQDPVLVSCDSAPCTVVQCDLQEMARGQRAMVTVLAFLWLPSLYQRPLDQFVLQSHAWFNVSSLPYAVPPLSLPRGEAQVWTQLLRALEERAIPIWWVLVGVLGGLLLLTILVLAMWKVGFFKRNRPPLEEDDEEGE
T1 sequence (P05106 27-788): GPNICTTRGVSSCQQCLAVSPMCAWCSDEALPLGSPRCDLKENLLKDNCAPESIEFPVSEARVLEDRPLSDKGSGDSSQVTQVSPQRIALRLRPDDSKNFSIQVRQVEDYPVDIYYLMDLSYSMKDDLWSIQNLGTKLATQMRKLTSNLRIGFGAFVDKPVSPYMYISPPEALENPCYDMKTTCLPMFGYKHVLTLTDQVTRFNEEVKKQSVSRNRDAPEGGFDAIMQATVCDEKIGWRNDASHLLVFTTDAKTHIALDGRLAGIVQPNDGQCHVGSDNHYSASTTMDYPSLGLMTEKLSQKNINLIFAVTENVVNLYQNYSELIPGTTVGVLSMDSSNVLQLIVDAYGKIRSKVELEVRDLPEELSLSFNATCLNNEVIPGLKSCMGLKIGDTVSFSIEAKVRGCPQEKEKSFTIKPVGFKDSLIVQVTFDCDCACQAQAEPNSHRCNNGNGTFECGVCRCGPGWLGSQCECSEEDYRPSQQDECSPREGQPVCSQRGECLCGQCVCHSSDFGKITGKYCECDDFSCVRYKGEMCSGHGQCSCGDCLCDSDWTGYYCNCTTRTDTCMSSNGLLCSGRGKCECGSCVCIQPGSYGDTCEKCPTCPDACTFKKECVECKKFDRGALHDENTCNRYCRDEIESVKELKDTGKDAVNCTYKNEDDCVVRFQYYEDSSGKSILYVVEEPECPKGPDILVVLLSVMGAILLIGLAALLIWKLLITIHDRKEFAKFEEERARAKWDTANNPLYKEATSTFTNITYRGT

As for `CCCNCCC(=O)N1CCc2nc(Nc3nc(-c4cccc(Cl)c4)cs3)nc(-c3ccccc3)c2C1` [Cmpd 28], the inhibition at 20 µM in assay [1] turned out to be 56%.
As for `Fc1ccc(-c2csc(Nc3nc4c(c(-c5ccccc5)n3)CNCC4)n2)cc1` [Cmpd 20], in assay [1], testing at 20 µM gave an inhibition of 87% and the IC50 was 5.8 µM. Besides, in assay [2], the inhibition at 30 µM came to 95% and the half-inhibitory concentration (IC50) is 20.9 µM.
`c1ccc(-c2csc(Nc3ncc4c(n3)CCNC4)n2)cc1` [Cmpd 24] registered an inhibition at 20 µM in assay [1] of 11%.
For `Clc1ccc(-c2csc(Nc3nc4c(c(-c5ccccc5)n3)CNCC4)n2)cc1` [Cmpd 21], in assay [1], testing at 20 µM gave an inhibition of 84% and the 50% inhibitory concentration (IC50) came to 6.1 µM. In assay [2], the inhibition at 30 µM was 87% and the 50% inhibitory concentration (IC50) stood at 20.9 µM.
In assay [1], `c1ccc(-c2csc(Nc3nc4c(c(-c5ccccc5)n3)CNCC4)n2)cc1` [Cmpd 13, 2-[4-Phenylthiazol-2-yl]amino-5,6,7,8-tetrahydro-4-phenylpyrimidino[4,5-d]pyridine] had an inhibition at 20 µM of 100% and an IC50 of 7.93 µM. In assay [2], this compound came in with an inhibition at 30 µM of 69% and an IC50 of 7.7 µM.
For `Cc1ccc(-c2csc(Nc3ncc4c(n3)CCNC4)n2)cc1` [Cmpd 23], in assay [1], the inhibition at 20 µM came out at 25%.
As to `Cc1ccc(-c2csc(Nc3nc4c(c(-c5ccccc5)n3)CN(C(=O)CCN3CCN(C)CC3)CC4)n2)cc1` [Cmpd 26], the inhibition at 20 µM in assay [1] worked out at 81%. This compound showed an inhibition at 30 µM in assay [2] of 39%.
`Cc1ccc(-c2csc(Nc3nc4c(c(-c5ccccc5)n3)CNCC4)n2)cc1` [Cmpd 15, 2-[4-[4-Methylphenyl]thiazol-2-yl]amino-5,6,7,8-tetrahydro-4-phenylpyrimidino[4,5-d]pyridine] displayed an inhibition at 20 µM in assay [1] of 85%. Further, in assay [2], testing at 30 µM gave an inhibition of 28%.
With `O=C(c1ccccc1)N1CCc2nc(Nc3nc(-c4ccc(F)cc4)cs3)nc(-c3ccccc3)c2C1` [Cmpd 9], 20 µM produced 27% inhibition in assay [1].
As for `COc1ccc(-c2csc(Nc3nc4c(c(-c5ccccc5)n3)CNCC4)n2)cc1` [Cmpd 18], the inhibition at 20 µM in assay [1] came to 25%.

As a reminder, the inhibition is the share of the control response that was lost under treatment. Low readings indicate a weak effect, high ones a strong effect. A word on the IC50: it is the concentration that inhibits the measured activity by half. Higher therefore signals weaker potency in that assay.
